These are literature values, as cited in patent publication JP2008055197A (priority 2007, dated 2008).

The structures appear in SMILES notation.

Turning to `O=[N+]([O-])OCC(CO[N+](=O)[O-])O[N+](=O)[O-]` [ニトログリセリン], the “solubility in ethyl alcohol, isopropyl alcohol and the like” value (ethyl alcohol, isopropyl alcohol and the like) is reported as “溶解する”. Besides, the solubility in water entry (water) is “不溶”.
